Test results reported in patent US5436229A, “Bisulfite adducts of arginine aldehydes” (Eli Lilly and Company, priority 1994, dated 1995).
Non-standard residues stand in square brackets, D forms with d. Residues, ends and D or L forms follow the SMILES beside them. ξ: configuration not given here. dPip = O=C(O)[C@H]1CCCCN1; dThz = O=C(O)[C@H]1CSCN1; ξAze = O=C(O)C1CCN1

What was measured:
human thrombin = human thrombin (Homo sapiens, UniProt P00734); test: Thrombin amidase inhibition (Kass), chromogenic substrate; format: biochemical
Outline: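 Kass, in liter per mole, was averaged over several compound concentrations, using free thrombin from a rate standard curve and free inhibitor as added minus bound. Hydrolysis of chromogenic substrate (0.25 mg/ml solution) was monitored at 405 nm with human thrombin (8 NIH units/ml solution) in Tris-NaCl buffer pH 7.4, compound in 50% aqueous methanol.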

[1] = Index of Bioavailability (plasma TT AUC, oral vs i.v.); format: in vivo; settings: rats, oral vs i.v. bolus
Excerpt: Assays are done in duplicate and averaged.
Each sample population represents alternating sequential time points.

Bovine trypsin = molecular target: T1, Bovine trypsin (Bos taurus, UniProt P00760); test: Serine protease inhibition (Kass), trypsin; format: biochemical
T1 construct: Bovine trypsin is purchased from Worthington Biochemicals; purchased Worthington Biochemicals, Freehold, N.J
T1 sequence (P00760 24-246): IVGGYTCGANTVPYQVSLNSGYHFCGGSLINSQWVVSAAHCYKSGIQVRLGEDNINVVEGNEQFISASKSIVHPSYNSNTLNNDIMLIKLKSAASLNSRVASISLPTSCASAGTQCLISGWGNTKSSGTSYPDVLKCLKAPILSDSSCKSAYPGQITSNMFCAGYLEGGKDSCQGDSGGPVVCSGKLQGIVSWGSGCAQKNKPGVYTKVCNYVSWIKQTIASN
Outline: (§1)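 Chromogenic p-nitroanilide substrate assays run as for human thrombin; trypsin with N-Benzoyl-Phe-Val-Arg-p-nitroanilide, human factor Xa with N-Benzoyl-Ile-Glu-Gly-Arg-p-nitroanilide. Values are association constants (Kass).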

Human plasmin = molecular target: T2, Human plasmin (Homo sapiens, UniProt P00747); test: Serine protease inhibition (Kass), plasmin; format: biochemical
T2 construct: Human plasmin is purchased from Boehringer Mannheim; purchased Boehringer Mannheim, Indianapolis, Ind
Outline: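 Kass values come from the thrombin chromogenic procedure applied to fibrinolytic proteases. t-PA (nt-PA single chain, or mt-PA6) paired with substrate H-D-Ile-Pro-Arg-p-nitroanilide; human plasmin paired with H-D-Val-Leu-Lys-p-nitroanilide.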

[2] = molecular target: T3, tissue plasminogen activator (t-PA) (Homo sapiens, UniProt P00750); test: Serine protease inhibition (Kass), t-PA; format: biochemical
T3 construct: purchased American Diagnostica, Greenwich, Conn

factor Xa = molecular target: T4, factor Xa (Homo sapiens, UniProt P00742); test: Serine protease inhibition (Kass), factor Xa; format: biochemical
T4 construct: Human factors X, Xa, IXa, XIa, and XIIa are purchased from Enzyme Research Laboratories; purchased Enzyme Research Laboratories, South Bend, Ind
Outline: as §1

human plasma [3] = test: Human plasma anticoagulation, thrombin time (TT); format: biochemical
Outline: (§2)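 Compounds added across a wide concentration range to human plasma; APTT, PT and TT clotting times measured on a coagulation instrument, bovine thrombin used for plasma assays. Concentration doubling clotting time estimated by linear extrapolation.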

human plasma [4] = test: Human plasma anticoagulation, activated partial thromboplastin time (APTT); format: biochemical
Outline: as §2

human plasma [5] = test: Human plasma anticoagulation, prothrombin time (PT); format: biochemical
Outline: as §2

T4 sequence (P00742 235-488 limits assumed): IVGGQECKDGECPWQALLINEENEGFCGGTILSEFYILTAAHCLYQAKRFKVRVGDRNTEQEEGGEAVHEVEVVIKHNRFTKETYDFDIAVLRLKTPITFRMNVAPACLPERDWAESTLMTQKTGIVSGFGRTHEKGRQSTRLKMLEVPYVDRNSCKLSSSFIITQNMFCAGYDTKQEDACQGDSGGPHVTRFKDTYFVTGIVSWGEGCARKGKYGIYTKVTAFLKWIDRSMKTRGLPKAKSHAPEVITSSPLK
T4 sequence (P00742 41-179 partner limits assumed): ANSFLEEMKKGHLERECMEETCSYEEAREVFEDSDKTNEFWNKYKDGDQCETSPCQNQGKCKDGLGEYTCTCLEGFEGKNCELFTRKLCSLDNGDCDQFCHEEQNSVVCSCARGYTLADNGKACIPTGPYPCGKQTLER
T3 sequence (P00750 36-562): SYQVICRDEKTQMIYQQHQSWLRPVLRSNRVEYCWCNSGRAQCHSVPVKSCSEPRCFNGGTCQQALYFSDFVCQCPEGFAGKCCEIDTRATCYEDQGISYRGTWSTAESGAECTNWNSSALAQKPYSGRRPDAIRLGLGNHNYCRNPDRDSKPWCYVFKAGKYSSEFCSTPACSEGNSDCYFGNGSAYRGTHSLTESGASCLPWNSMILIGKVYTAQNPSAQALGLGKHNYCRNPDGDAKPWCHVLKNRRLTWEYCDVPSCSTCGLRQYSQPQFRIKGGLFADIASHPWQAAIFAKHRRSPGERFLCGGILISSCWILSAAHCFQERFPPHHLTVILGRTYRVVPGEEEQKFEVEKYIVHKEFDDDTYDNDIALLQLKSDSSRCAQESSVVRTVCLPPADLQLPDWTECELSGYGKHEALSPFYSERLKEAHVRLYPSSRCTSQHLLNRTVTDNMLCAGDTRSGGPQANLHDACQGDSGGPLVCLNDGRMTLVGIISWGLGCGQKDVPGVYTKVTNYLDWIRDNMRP
T2 sequence (P00747 581-810 limits assumed): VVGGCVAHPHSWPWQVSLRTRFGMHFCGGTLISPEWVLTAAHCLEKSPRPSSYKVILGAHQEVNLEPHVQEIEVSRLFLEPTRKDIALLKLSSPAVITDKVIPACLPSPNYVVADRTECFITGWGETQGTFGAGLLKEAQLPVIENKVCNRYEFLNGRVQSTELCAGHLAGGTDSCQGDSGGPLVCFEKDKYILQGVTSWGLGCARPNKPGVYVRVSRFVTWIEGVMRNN
T2 sequence (P00747 97-580 partner limits assumed): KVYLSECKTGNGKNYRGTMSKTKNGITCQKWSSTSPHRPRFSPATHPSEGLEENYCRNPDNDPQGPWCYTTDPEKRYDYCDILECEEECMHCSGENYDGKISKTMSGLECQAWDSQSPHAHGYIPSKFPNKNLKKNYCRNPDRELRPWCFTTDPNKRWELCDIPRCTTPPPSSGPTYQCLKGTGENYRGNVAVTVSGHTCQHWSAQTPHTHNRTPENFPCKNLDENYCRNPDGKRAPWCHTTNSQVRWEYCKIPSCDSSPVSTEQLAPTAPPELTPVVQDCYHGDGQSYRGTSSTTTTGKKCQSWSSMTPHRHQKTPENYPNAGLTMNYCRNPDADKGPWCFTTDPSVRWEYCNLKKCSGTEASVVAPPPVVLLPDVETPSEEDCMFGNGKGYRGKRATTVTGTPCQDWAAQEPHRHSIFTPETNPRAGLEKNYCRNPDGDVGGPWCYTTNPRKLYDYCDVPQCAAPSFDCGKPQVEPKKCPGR

Row | Compound | Kass Human Thrombin (human thrombin) [L/mol × 10^6] | Percent Relative Activity (Index of Bioavailability) [1] [%] | Kass Trypsin (Bovine trypsin) [L/mol × 10^6] | Kass Plasmin (Human plasmin) [L/mol × 10^6] | Kass t-PA [2] [L/mol × 10^6] | Kass Xa (factor Xa) [L/mol × 10^6] | 2 × Clotting time TT (human plasma [3]) [ng/mL] | 2 × Clotting time APTT (human plasma [4]) | 2 × Clotting time PT (human plasma [5])
1 | Cl.Cl.Cl.N=C(N)NCCC[C@@H](C=O)NC(=O)[C@@H]1CCCN1C(=O)[C@H]1C[C@@H](Oc2ccccc2)CN1.O (relative stereo) [Example 12, D-Cis-(4-phenoxy)Prolinyl-L-Prolinyl-L-Arginine Aldehyde Trihydrochloride Monohydrate] | 25 | 16 | – | – | – | – | – | – | –
2 | CN[C@@H](C(=O)N1CCC[C@H]1C(=O)N[C@@H](CCCNC(=N)N)C(O)S(=O)(=O)[O-])c1ccccc1.O=S(=O)(O)O.[Na+] (stereo partly drawn) [Example 79, N-methyl-D-phenylglycinyl-L-prolinyl-NH-CH[(CH2)3 NH-C(NH)-NH2]-C(OH)SO3 Na.H2 SO4] | 239 | 21 | 84 | 1.8 | 0.01 | – | – | – | –
3 | Cl.Cl.N=C(N)NCCC[C@@H](C=O)NC(=O)[C@@H]1CCCN1C(=O)[C@H]1CSCN1 [Example 4, D-Thiazolidinyl-4-Carbonyl-L-Prolinyl-L-Arginine Aldehyde Dihydrochloride] (H-[dThz]-Pro-Arg-aldehyde) | 5 | 16 | – | – | – | – | – | – | –
4 | CNC(CC(=O)N1CCC[C@H]1C(=O)N[C@H](C=O)CCCNC(=N)N)C1CCCCC1.CNC(CC(=O)N1CCC[C@H]1C(=O)N[C@H](C=O)CCCNC(=N)N)C1CCCCC1.Cl.Cl.Cl.Cl.O (stereo partly drawn) [Example 16, N-methyl-3-amino-3-cyclohexyl propionyl-L-Pro-L-Arg aldehyde dihydrochloride hemihydrate] | 85 | 19 | – | – | – | – | – | – | –
5 | N=C(N)NCCC[C@H](NC(=O)[C@@H]1CCCN1C(=O)C1CC2CCCCC2CN1)C(O)S(=O)(=O)[O-].O=S(=O)(O)O.[Na+] (stereo partly drawn) [Example 80, D-1,2,3,4,4a,6,7,8,8a-Perhydroisoquinolin-3-yl carbonyl-L-prolinyl-L-arginine aldehyde bisulfite sulfate] | 62 | 57 | 137 | 2.7 | 0.01 | – | – | – | –
6 | CNC(CC(=O)N1CCC[C@H]1C(=O)N[C@H](C=O)CCCNC(=N)N)c1ccccc1.Cl.Cl.O.O (stereo partly drawn) [Example 15, N-methyl-3-amino-3-phenylpropionyl-L-Prolinyl-L-Arginine Aldehyde Dihydrochloride Dihydrate] | 70 | 28 | – | – | – | – | – | – | –
7 | Cl.Cl.N=C(N)NCCC[C@@H](C=O)NC(=O)C1CCN1C(=O)[C@H]1CCCCN1 (stereo partly drawn) [Example 3, D-Homoprolinyl-L-Azetidinyl-L-Arginine Aldehyde Dihydrochloride] (H-[dPip]-[ξAze]-Arg-aldehyde) | 45 | 32 | – | – | – | – | – | – | –
8 | D-Prolinyl-L-Prolinyl-L-Arginine Aldehyde Dihydrochloride [Example 2] | 12 | 36 | – | – | – | – | – | – | –
9 | Cl.Cl.Cl.N=C(N)NCCC[C@@H](C=O)NC(=O)[C@@H]1CCCN1C(=O)C1CCCCC1N.O (stereo partly drawn) [Example 22, 2-aminocyclohexylcarbonyl-L-Pro-L-Arginine Aldehyde Trihydrochloride Monohydrate] | 39 | 15 | – | – | – | – | – | – | –
10 | CNCC(Cc1ccccc1)C(=O)N1CCC[C@H]1C(=O)N[C@H](C=O)CCCNC(=N)N.Cl.Cl.O (stereo partly drawn) [Example 17, N-Methyl-3-amino-2-benzylpropionyl-L-Pro-L-Arg Aldehyde Dihydrochloride Monohydrate] | 12 | 8 | – | – | – | – | – | – | –
11 | Cl.Cl.N=C(N)NCCC[C@@H](C=O)NC(=O)[C@@H]1CCCN1C(=O)C1NCCCC2CCCCC21 (mixture of isomers) [Example 8, DL-cis-3-aza-bicyclo[5.4.0]undecanyl-2-carbonyl-L-prolinyl-L-arginine aldehyde dihydrochloride] | 595 | 43 | – | – | – | – | – | – | –
12 | Cl.Cl.N=C(N)NCCC[C@@H](C=O)NC(=O)[C@@H]1CCCN1C(=O)C1NCCS1 (stereo partly drawn) [Example 10, D,L-Thiazolidinyl-2-carbonyl-L-prolinyl-L-arginine aldehyde dihydrochloride] | 27 | 5 | – | – | – | – | – | – | –
13 | Cl.Cl.N=C(N)NCCC[C@@H](C=O)NC(=O)[C@@H]1CCCN1C(=O)C1CNCCN1 (stereo partly drawn) [Example 9, D,L-Piperazin-2-yl-L-Prolinyl-L-Arginine Aldehyde Dihydrochloride] | 121 | 19 | – | – | – | – | – | – | –
14 | N-methyl-D-Phg-Pro-Arg-H.H2 SO4 [79 (Step A)] | 236 | 18 | 87 | 1.3 | 0.01 | – | – | – | –
15 | Cl.N=C(N)NCCC[C@@H](C=O)NC(=O)[C@@H]1CCCN1C(=O)[C@@H](Cc1ccccc1)NC(=O)Cc1cccnc1 [Example 48, N-(3-pyridylacetyl)-D-phenylalanyl-L-Prolinyl-L-Arginine Aldehyde Hydrochloride] | 13 | – | 5.2 | 0.27 | 0.22 | 0.067 | 150 | 2,300 ng/mL | 3,400 ng/mL
16 | CC(=O)N[C@H](Cc1ccccc1)C(=O)N1CCC[C@H]1C(=O)N[C@H](C=O)CCCNC(=N)N.Cl [Example 67, N-(acetyl)-D-phenylalanyl-L-Prolinyl-L-Arginine Aldehyde Hydrochloride] | 3.4 | – | 14 | 0.28 | 0.11 | 0.066 | 140 | 2,700 ng/mL | 4,100 ng/mL
17 | CCOC(=O)N[C@H](CC1CCCCC1)C(=O)N1CCC[C@H]1C(=O)N[C@H](C=O)CCCNC(=N)N.Cl [Example 78, N-(ethoxycarbonyl)-D-cyclohexylalanyl-L-prolinyl-L-Arginine Aldehyde Hydrochloride] | 360 | – | 140 | 26 | 0.75 | 8.1 | 48 | 410 ng/mL | 890 ng/mL
18 | Cl.N=C(N)NCCC[C@@H](C=O)NC(=O)[C@@H]1CCCN1C(=O)[C@@H](Cc1ccccc1)NC(=O)Cc1ccccc1 [Example 70, N-(phenylacetyl)-D-phenylalanyl-L-Prolinyl-L-Arginine Aldehyde Hydrochloride] | 29 | – | 14 | 0.54 | 0.37 | 0.10 | 64 | 1,100 ng/mL | 2,000 ng/mL
19 | CCS(=O)(=O)NC1(C(=O)N2CCC[C@H]2C(=O)N[C@H](C=O)CCCNC(=N)N)CCCCC1.Cl [Example 31, 1-(ethylsulfonylamino)cyclohexoyl-L-prolinyl-L-arginine aldehyde hydrochloride] | 3.2 | – | 0.42 | 0.010 | 0.00034 | 0.036 | 300 | 12,000 ng/mL | 11,000 ng/mL
